25 molecules from patent US6313153A, “Compositions and methods for treating nephritis and inhibiting TGF -β related conditions using pyridylacrylamide derivatives” (Tsumura & Co., priority 1997, dated 2001) can be followed below.

The subject of the test is anti-GBM nephritic mice. Kind of test: anti-GBM nephritic mice: proteinuria, serum cholesterol, blood urea nitrogen and serum creatinine.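 On Proteinuria 10th day: minus not effective plus trend double p<0.05 triple p<0.01 quadruple p<0.001 improvement vs control.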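 On Proteinuria 5th day: minus not effective plus trend double p<0.05 triple p<0.01 quadruple p<0.001 improvement vs control.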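 On Serum Parameter BUN (blood urea nitrogen): minus not effective plus trend double p<0.05 triple p<0.01 quadruple p<0.001 improvement vs control.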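 On Serum Parameter S-Ch (serum cholesterol): minus not effective plus trend double p<0.05 triple p<0.01 quadruple p<0.001 improvement vs control.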 The test is classed as in vivo, BALB/c mice. Conditions: for Total Evaluation: 3 × (number of + in proteinuria) + (number of + in serum parameter); for Proteinuria 5th day: 5th day from intravenous injection of anti-GBM serum; for Proteinuria 5th day / Proteinuria 10th day / Serum Parameter BUN (blood urea nitrogen) / Serum Parameter S-Ch (serum cholesterol) / Serum Parameter S-Cr (serum creatinine): oral; for Proteinuria 10th day: 10th day from intravenous injection of anti-GBM serum; for Serum Parameter BUN (blood urea nitrogen) / Serum Parameter S-Ch (serum cholesterol) / Serum Parameter S-Cr (serum creatinine): 11th day.

Protocol: BALB/c mice (5 weeks old, purchased from Nippon Charles Liver) were quarantined and adapted for about 1 week before subjecting to experiments. These mice were divided into several groups for the experiments so that average body weights and standard deviations were almost identical in all groups. Mouse anti-GBM (glomerular basement membrane) nephritis was caused by immunizing the mice with rabbit γ-globulin (1 mg) with Freund's complete adjuvant and intravenously injecting rabbit anti-mouse GBM serum on the fifth day from the immunization. Each compound tested was forcedly orally administered via an oral sonde almost simultaneously with the intravenous injection of the anti-GBM serum. On the 5th and 10th days from the intravenous injection, urine was taken by a plastic metabolic cage and proteinuria was measured (Ohtsuka Tonein TP2). On the 11th day, blood was taken by cutting the carotid and serum cholesterol (S--Ch), blood urea nitrogen (BUN) and serum creatinine (S--Cr) were measured by Toshiba TBA-380 autoanalyzer.

Regarding `Cl.N#C/C(=C\c1cccnc1)C(=O)NCCc1ccc(O)cc1` [Compound 6, (E)-2-cyano-N-(4-hydroxyphenethyl)-3-(3-pyridyl)-2-propenoic acid amide hydrochloride], the “Total Evaluation” value stood at 16, the “Proteinuria 5th day” value was “++”, the “Proteinuria 10th day” value is “+++” and the “Serum Parameter BUN (blood urea nitrogen)” value (shortened to “Serum Parameter BUN”) is given as “-”. The “Serum Parameter S-Ch (serum cholesterol)” value was “+” and the “Serum Parameter S-Cr (serum creatinine)” value is recorded as “-”.

Consider `N#C/C(=C\c1cccnc1)C(=O)NCCc1cccc(O)c1` [Compound 8], for which the “Total Evaluation” value came to 6, the “Proteinuria 5th day” value is given as “-”, the “Proteinuria 10th day” value is on record as “++” and the “Serum Parameter BUN” value is listed as “-”. The “Serum Parameter S-Ch (serum cholesterol)” value is on record as “-” and the “Serum Parameter S-Cr (serum creatinine)” value is “-”.

In the case of `COc1cc(CCN(C)C(=O)/C=C/c2cccnc2)cc(OC)c1OC.Cl` [Compound 9, (E)-N-methyl-3-(3-pyridyl)-N-(3,4,5-trimethoxyphenethyl)-2-propenoic acid amide hydrochloride], the “Total Evaluation” value was determined as 12, the “Proteinuria 5th day” value is recorded as “+”, the “Proteinuria 10th day” value was “++” and the “Serum Parameter BUN” value is given as “+”. Besides, the “Serum Parameter S-Ch (serum cholesterol)” value is on record as “+” and the “Serum Parameter S-Cr (serum creatinine)” value is “+”.

As to `COc1cccc(CCN(C)C(=O)/C=C/c2cccnc2)c1OC` [Compound 13], the “Total Evaluation” value was 13, the “Proteinuria 5th day” value is “+”, the “Proteinuria 10th day” value is “+++” and the “Serum Parameter BUN” value was “+”. The “Serum Parameter S-Ch (serum cholesterol)” value was “-” and the “Serum Parameter S-Cr (serum creatinine)” value was “+”.

`COc1ccc(CCN(C)C(=O)/C=C/c2cccnc2)c(OC)c1` [Compound 14]: the “Total Evaluation” value is reported as 7, the “Proteinuria 5th day” value is “-”, the “Proteinuria 10th day” value was “+” and the “Serum Parameter BUN” value is reported as “+”. Moreover, the “Serum Parameter S-Ch (serum cholesterol)” value was “+” and the “Serum Parameter S-Cr (serum creatinine)” value is on record as “-”.

`COc1ccc(OC)c(CCN(C)C(=O)/C=C/c2cccnc2)c1` [Compound 15]: the “Total Evaluation” value was 11, the “Proteinuria 5th day” value is listed as “+”, the “Proteinuria 10th day” value is listed as “+” and the “Serum Parameter BUN” value was “+”. For the same molecule, the “Serum Parameter S-Ch (serum cholesterol)” value is “+” and the “Serum Parameter S-Cr (serum creatinine)” value is reported as “+”.

Take `COc1cc(CCN(C)C(=O)/C=C/c2cccnc2)cc(OC)c1` [Compound 18]: the “Total Evaluation” value was found to be 13, the “Proteinuria 5th day” value was “+”, the “Proteinuria 10th day” value was “++” and the “Serum Parameter BUN” value is “++”. Besides, the “Serum Parameter S-Ch (serum cholesterol)” value is “++” and the “Serum Parameter S-Cr (serum creatinine)” value is reported as “-”.

Regarding `COc1ccc(CN(C)C(=O)/C=C/c2cccnc2)cc1OC` [Compound 20], the “Total Evaluation” value is 13, the “Proteinuria 5th day” value was “++”, the “Proteinuria 10th day” value is “+” and the “Serum Parameter BUN” value is given as “+”. Besides, the “Serum Parameter S-Ch (serum cholesterol)” value was “+” and the “Serum Parameter S-Cr (serum creatinine)” value was “++”.

On to `CN(CCc1ccc(Cl)c(Cl)c1)C(=O)/C=C/c1cccnc1` [Compound 25], for which the “Total Evaluation” value stood at 13, the “Proteinuria 5th day” value was “+”, the “Proteinuria 10th day” value is “++” and the “Serum Parameter BUN” value was “+”. In addition, the “Serum Parameter S-Ch (serum cholesterol)” value is “+++” and the “Serum Parameter S-Cr (serum creatinine)” value was “+”.

Regarding `O=C(/C=C/c1cccnc1)NCCc1ccccc1O` [Compound 38], the “Total Evaluation” value was 19, the “Proteinuria 5th day” value is listed as “++”, the “Proteinuria 10th day” value was “+++” and the “Serum Parameter BUN” value is reported as “+”. Further, the “Serum Parameter S-Ch (serum cholesterol)” value is recorded as “++” and the “Serum Parameter S-Cr (serum creatinine)” value is listed as “+”.

Take `COc1ccc(OC)c(CCNC(=O)/C=C/c2cccnc2)c1` [Compound 39]: the “Total Evaluation” value is 21, the “Proteinuria 5th day” value is on record as “++”, the “Proteinuria 10th day” value is “+++” and the “Serum Parameter BUN” value is on record as “++”. Also, the “Serum Parameter S-Ch (serum cholesterol)” value is “++” and the “Serum Parameter S-Cr (serum creatinine)” value was “++”.

As for `COc1cccc(CCNC(=O)/C=C/c2cccnc2)c1` [Compound 41], the “Total Evaluation” value turned out to be 8, the “Proteinuria 5th day” value is recorded as “+”, the “Proteinuria 10th day” value is recorded as “-” and the “Serum Parameter BUN” value is “-”. Moreover, the “Serum Parameter S-Ch (serum cholesterol)” value was “+++” and the “Serum Parameter S-Cr (serum creatinine)” value is “++”.

`COc1cccc(CNC(=O)/C=C/c2cccnc2)c1` [Compound 42]: the “Total Evaluation” value stood at 9, the “Proteinuria 5th day” value was “+”, the “Proteinuria 10th day” value was “+” and the “Serum Parameter BUN” value is “+”. Also, the “Serum Parameter S-Ch (serum cholesterol)” value was “-” and the “Serum Parameter S-Cr (serum creatinine)” value was “++”.

Take `O=C(/C=C/c1cccnc1)NCc1ccc(O)cc1` [Compound 45]: the “Total Evaluation” value came to 10, the “Proteinuria 5th day” value is recorded as “++”, the “Proteinuria 10th day” value is “+” and the “Serum Parameter BUN” value is “-”. The “Serum Parameter S-Ch (serum cholesterol)” value was “+” and the “Serum Parameter S-Cr (serum creatinine)” value was “-”.

Take `COc1ccc(O)c(CCNC(=O)/C=C/c2cccnc2)c1` [Compound 50]: the “Total Evaluation” value is given as 18, the “Proteinuria 5th day” value is recorded as “++”, the “Proteinuria 10th day” value is recorded as “+++” and the “Serum Parameter BUN” value is “-”. Also, the “Serum Parameter S-Ch (serum cholesterol)” value is recorded as “+++” and the “Serum Parameter S-Cr (serum creatinine)” value was “-”.

As to `CN(CCc1ccc(-c2ccccc2)cc1)C(=O)/C=C/c1cccnc1` [Compound 52], the “Total Evaluation” value is reported as 10, the “Proteinuria 5th day” value was “+”, the “Proteinuria 10th day” value was “+” and the “Serum Parameter BUN” value is “+”. In addition, the “Serum Parameter S-Ch (serum cholesterol)” value is listed as “+” and the “Serum Parameter S-Cr (serum creatinine)” value is “++”.

With `CSc1ccc(CCN(C)C(=O)/C=C/c2cccnc2)cc1` [Compound 53], the “Total Evaluation” value is 6, the “Proteinuria 5th day” value is “-”, the “Proteinuria 10th day” value is reported as “+” and the “Serum Parameter BUN” value is listed as “-”. Moreover, the “Serum Parameter S-Ch (serum cholesterol)” value is “-” and the “Serum Parameter S-Cr (serum creatinine)” value is given as “+++”.

In the case of `O=C(/C=C/c1cccnc1)NCCc1ccccc1O` [Compound 70, (E)-N-(2-hydroxyphenethyl)-3-(3-pyridyl)-2-propenoic acid amide], the “Total Evaluation” value came to 22, the “Proteinuria 5th day” value is reported as “++”, the “Proteinuria 10th day” value is given as “+++” and the “Serum Parameter BUN” value is recorded as “++”. Besides, the “Serum Parameter S-Ch (serum cholesterol)” value was “+++” and the “Serum Parameter S-Cr (serum creatinine)” value was “++”.

Turning to `O=C(/C=C/c1cccnc1)NCCc1ccc(O)cc1` [Compound 71], the “Total Evaluation” value came to 17, the “Proteinuria 5th day” value is recorded as “+”, the “Proteinuria 10th day” value is given as “+++” and the “Serum Parameter BUN” value is recorded as “++”. The “Serum Parameter S-Ch (serum cholesterol)” value is reported as “-” and the “Serum Parameter S-Cr (serum creatinine)” value is listed as “++”.

On to `O=C(/C=C/c1cccnc1)NCCc1cccc(O)c1` [Compound 75], for which the “Total Evaluation” value was determined as 19, the “Proteinuria 5th day” value is “++”, the “Proteinuria 10th day” value is “+++” and the “Serum Parameter BUN” value is reported as “+”. Also, the “Serum Parameter S-Ch (serum cholesterol)” value is listed as “++” and the “Serum Parameter S-Cr (serum creatinine)” value is given as “+”.

On to `CN(CCc1ccc(O)c(O)c1)C(=O)/C=C/c1cccnc1` [Compound 85, (E)-N-(3,4-dihydroxyphenethyl)-N-methyl-3-(3-pyridyl)-2-propenoic acid amide], for which the “Total Evaluation” value is 21, the “Proteinuria 5th day” value is listed as “+++”, the “Proteinuria 10th day” value is “+++” and the “Serum Parameter BUN” value was “+”. Besides, the “Serum Parameter S-Ch (serum cholesterol)” value is recorded as “++” and the “Serum Parameter S-Cr (serum creatinine)” value was “-”.

As to `CN(CCc1ccc(O)cc1)C(=O)/C=C/c1cccnc1` [Compound 87], the “Total Evaluation” value is recorded as 19, the “Proteinuria 5th day” value is given as “+++”, the “Proteinuria 10th day” value was “+” and the “Serum Parameter BUN” value is given as “+++”. The “Serum Parameter S-Ch (serum cholesterol)” value was “++” and the “Serum Parameter S-Cr (serum creatinine)” value was “++”.

In the case of `O=C(/C=C/c1cccnc1)NCCc1cc(O)ccc1O` [Compound 89], the “Total Evaluation” value was found to be 15, the “Proteinuria 5th day” value is recorded as “++”, the “Proteinuria 10th day” value is given as “++” and the “Serum Parameter BUN” value is “+”. Further, the “Serum Parameter S-Ch (serum cholesterol)” value is recorded as “++” and the “Serum Parameter S-Cr (serum creatinine)” value was “-”.

For the molecule `O=C(/C=C/c1cccnc1)NCc1cccc(O)c1` [Compound 90], the “Total Evaluation” value was 17, the “Proteinuria 5th day” value was “++”, the “Proteinuria 10th day” value was “+++” and the “Serum Parameter BUN” value is reported as “+”. Moreover, the “Serum Parameter S-Ch (serum cholesterol)” value is “-” and the “Serum Parameter S-Cr (serum creatinine)” value was “+”.

Turning to `O=C(/C=C/c1cccnc1)NCCc1ccc(O)c(O)c1` [Compound 91], the “Total Evaluation” value was 14, the “Proteinuria 5th day” value was “+”, the “Proteinuria 10th day” value is “+++” and the “Serum Parameter BUN” value is given as “-”. For the same molecule, the “Serum Parameter S-Ch (serum cholesterol)” value is “++” and the “Serum Parameter S-Cr (serum creatinine)” value is listed as “-”.
